Test results published in patent publication US20230014226A1, “NEW COMPOUNDS AND METHODS” (BenevolentAI Bio Limited, priority 2019, published 2023).
Entries after “also recorded” stand apart in the source; their conditions may differ.

Experiments:
HUVEC = HUVEC Cell Viability (CV) assay; type: cell-based, human; details: Homo sapiens, alamarBlue
Method: Cells are seeded at 10,000 cells/well in 96-well plates in HUVEC specific cell culture media. Cells are plated and cultured overnight (16-24 h) at 37° C. After the overnight culture, cells are washed and fed with the Assay Medium. Test compounds are applied and incubated with the cells for the designated time period, after which the cell viability is measured by alamarBlue method. […] The final DMSO concentration is 1%.
Fluorescence readings are recorded after the test compound and alamarBlue incubation. The excitation and emission wavelengths are 530 nm and 590 nm, respectively.
The percent of control is calculated by comparing the readings in the presence of the test compound to the vehicle control. Subsequently, the percent inhibition is calculated by subtracting the percent control activity from 100. IC50 values (concentration causing a half-maximal inhibition of the control value) are determined by non-linear regression analysis of the concentration-response curves using the Hill equation.
The reference compound used for this assay is Staurosporine.

[1] = target: T1, recombinant human P450 enzyme 1A1 (Homo sapiens, UniProt P04798); experiment: Formation of reactive metabolites (glutathione adduct) by CYP1A1 with human liver cytosol; type: in vitro ADME; details: human liver cytosol + recombinant CYP1A1, NADPH and GSH
T1 construct: host or cells: Bacterial membranes (bactosomes), inferred from the named control preparation
T1 sequence (P04798 1-512): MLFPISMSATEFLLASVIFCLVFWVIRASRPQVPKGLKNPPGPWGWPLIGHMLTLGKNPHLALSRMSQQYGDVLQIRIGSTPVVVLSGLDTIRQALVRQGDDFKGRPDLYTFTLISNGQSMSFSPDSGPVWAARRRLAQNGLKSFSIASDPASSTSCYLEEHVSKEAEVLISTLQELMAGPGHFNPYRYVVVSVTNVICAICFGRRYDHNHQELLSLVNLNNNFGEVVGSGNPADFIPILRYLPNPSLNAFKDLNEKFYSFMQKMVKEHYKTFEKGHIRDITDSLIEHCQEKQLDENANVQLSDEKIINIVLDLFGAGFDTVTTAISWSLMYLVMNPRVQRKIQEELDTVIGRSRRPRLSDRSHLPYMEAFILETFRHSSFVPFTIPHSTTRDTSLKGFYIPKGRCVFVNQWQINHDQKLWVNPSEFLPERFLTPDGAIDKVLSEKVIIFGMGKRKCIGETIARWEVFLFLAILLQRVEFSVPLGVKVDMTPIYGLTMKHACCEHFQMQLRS
Method: Investigations into the potential for test compound to form a reactive metabolite were performed using an adapted method detailed by De Lin et al. Briefly, test compound was pre-incubated (n=2; 50 μM substrate concentration) at 37° C. for 5 min with mixed-gender human liver cytosol (1 mg/mL total protein concentration) in 100 mM phosphate buffer (pH 7.4) with 5 mM MgCl2 in the presence of recombinant human P450 enzyme 1A1 (100 nM), in the presence and absence of 5 mM glutathione. At the end of the pre-incubation period, 2 mM NADPH was added to each sample and the mixture incubated at 37° C. for 60 min. Immediately following the addition of NADPH and after the 60 min incubation period, aliquots of each sample were mixed with MeCN (containing internal standard) to terminate the reaction and precipitate the proteins.
Samples were mixed, centrifuged and following appropriate dilution, supernatants were analysed by LC-MS utilising a high-resolution mass spectrometer to perform metabolite identification and characterisation analysis.

metabolites identified as products of oxidation and glutathione conjugation [1]: Two very minor metabolites
SMILES: Cc1ccc(C(=O)Nc2cn(C(C)C)cn2)cc1C#Cc1cccnc1 [Example 25, N-(1-isopropylimidazol-4-yl)-4-methyl-3-[2-(3-pyridyl)ethynyl]benzamide]
IC50 (HUVEC): 45 µM
formation of direct glutathione adduct ([1]; 50 μM, 60 min): does not form a glutathione adduct; also recorded: no products of direct glutathione conjugation were observed
